This note sets out measurements from the RepoRT retention time repository (doi:10.1016/j.aca.2011.12.065).

Each structure is given as a SMILES string. Counter-ions that a name gives are not always drawn.

This data set in a line: RP, Waters ACQUITY UPLC HSS T3, 100 × 2.1 mm, 1.8 µm; A: water + 0.1% formic acid, pH 3; B: 30% methanol + 70% acetonitrile + 0.1% formic acid, pH 3; gradient (min/%B) 0.0/5 1.0/8 2.0/15 3.0/40 4.0/70 4.5/100 5.0/100 6.4/100 6.6/5.0 6.8/5.0 7.0/5.0. To be noted: stereoisomer not certain.
Take `CC1(O)CCOC(=O)C1` (stereo unspecified) [Mevalonolactone]: the LC retention time was found to be 1.19 min.

Consider `CN(C)CC(=O)O` [N,N-dimethylglycine], for which the LC retention time was 0.47 min. As for `CSCCC(NC(=O)Cc1ccccc1)C(=O)O` (stereo unspecified) [N-phenylacetyl-methionine], the LC retention time is 3.79 min. In the case of `O=C(O)Cc1ccccc1` [Phenylacetic acid], the LC retention time turned out to be 0.861 min. The figure for `O=C(O)CCCCCC(=O)O` [Pimelic acid] is 3.17 min; for `O=C(O)C1CCCN1` (stereo unspecified) [Proline] it is 0.506 min; for `O=C1CCC(C(=O)O)N1` (stereo unspecified) [Pyroglutamic acid] it is 0.731 min.

For the compound `Cc1cc2nc3c(=O)[nH]c(=O)nc-3n(CC(O)C(O)C(O)CO)c2cc1C` (stereo unspecified) [Riboflavin], the LC retention time came out at 3.38 min. The figure for `NCCS(=O)(=O)O` [Taurine] is 0.47 min. `CC(CCC(=O)NCCS(=O)(=O)O)C1CCC2C3C(O)CC4CC(O)CCC4(C)C3CC(O)C12C` (stereo unspecified) [Taurocholic acid]: the LC retention time was found to be 4.26 min. The figure for `CC(O)C(N)C(=O)O` (stereo unspecified) [Threonine] is 0.475 min; for `O=c1cc[nH]c(=O)[nH]1` [Uracil] it is 0.628 min.

In the case of `O=c1[nH]c(=O)c2[nH]c(=O)[nH]c2[nH]1` [Uric acid], the LC retention time came to 0.618 min. `COc1cc(C(=O)O)ccc1O` [Vanillic acid]: the LC retention time amounted to 3.17 min. Regarding `CNC(C)(C)C(=O)O` [alfa-(methylamino)isobutyric acid], the LC retention time was 0.531 min.

Regarding `OCC1OC(OC2C(CO)OC(O)C(O)C2O)C(O)C(O)C1O` (stereo unspecified) [alfa-lactose monohydrate], the LC retention time came out at 0.476 min. As to `CC(C)c1cc2c(c(O)c1O)C13CCCC(C)(C)C1CC2OC3=O` (stereo unspecified) [carnosol], the LC retention time amounted to 4.51 min. In the case of `NC(CCCCNCC(=O)O)C(=O)O` (stereo unspecified) [cml], the LC retention time was 0.527 min. On to `COC1=C(OC)C(=O)C(CC=C(C)C)=C(C)C1=O` [coenzyme q1], for which the LC retention time worked out at 4.47 min. With `Nc1ccn(C2OC(CO)C(O)C2O)c(=O)n1` (stereo unspecified) [cytidine], the LC retention time was found to be 0.533 min. Consider `CC(C)(CO)C(O)C(=O)NCCC(=O)NCCSSCCNC(=O)CCNC(=O)C(O)C(C)(C)CO` (stereo not drawn) [d-pantethine], for which the LC retention time stood at 3.44 min.

Consider `CC(CCC(=O)O)C1CCC2C3C(=O)CC4CC(=O)CCC4(C)C3CC(=O)C12C` (stereo unspecified) [dehydrocholic acid], for which the LC retention time amounted to 4.05 min. `O=C1CCCCN1` [delta-valerolactam]: the LC retention time was 1.69 min.

`NC(CCC(=O)O)C(=O)O` (stereo unspecified) [glutamic acid]: the LC retention time was found to be 0.475 min. The figure for `CC(CCC(=O)NCC(=O)O)C1CCC2C3C(O)CC4CC(O)CCC4(C)C3CCC12C` (stereo unspecified) [glycochenodeoxycholic acid] is 4.23 min. As for `CC(CCC(=O)NCC(=O)O)C1CCC2C3CCC4CC(O)CCC4(C)C3CC(O)C12C` (stereo unspecified) [glycodeoxycholic acid], the LC retention time came out at 4.44 min. As for `CC(CCC(=O)NCC(=O)O)C1CCC2C3CCC4CC(O)CCC4(C)C3CCC12C` (stereo unspecified) [glycolithocholic acid], the LC retention time came out at 4.61 min. `Nc1nc2c(ncn2C2OC(CO)C(O)C2O)c(=O)[nH]1` (stereo unspecified) [guanosine]: the LC retention time came to 1.18 min. With `CC12CCC(=O)C=C1CCC1C2C(O)CC2(C)C1CCC2(O)C(=O)CO` (stereo unspecified) [hydrocortisone, cortisol], the LC retention time was found to be 3.87 min. As for `NCCS(=O)O` [hypotaurine], the LC retention time is 0.468 min. As for `O=c1[nH]cnc2nc[nH]c12` [hypoxanthine], the LC retention time is 0.706 min. `OCC1OC(Oc2c[nH]c3ccccc23)C(O)C(O)C1O` (stereo not drawn) [indoxyl beta-d-glucoside]: the LC retention time amounted to 2.92 min.

For the compound `O=C(O)C1OC(Oc2c[nH]c3ccccc23)C(O)C(O)C1O` (stereo not drawn) [indoxyl beta-d-glucuronide cyclohexylammonium salt], the LC retention time came out at 2.95 min. Turning to `O=c1c(O)c(-c2ccc(O)cc2)oc2cc(O)cc(O)c12` [kaempferol], the LC retention time was 3.88 min. Turning to `NC(CS)C(=O)O` (stereo not drawn) [l-cysteine], the LC retention time worked out at 0.491 min. As for `NC(CSSCC(N)C(=O)O)C(=O)O` (stereo not drawn) [l-cystine], the LC retention time was determined as 0.447 min. Turning to `NCCCCC(N)C(=O)O` (stereo not drawn) [l-lysine], the LC retention time is 0.404 min. Turning to `NCCCC(N)C(=O)O` (stereo not drawn) [l-ornithine monohydrochloride], the LC retention time was determined as 0.415 min. For `CCCCCCCCCCCC(=O)OC(CC(=O)[O-])C[N+](C)(C)C` (stereo not drawn) [lauroyl l-carnitine], the LC retention time turned out to be 4.2 min. On to `CC(=O)CCC(=O)O` [levulinic acid], for which the LC retention time is 1.46 min.

`CCCCCCCCCCCCCCCC(=O)OCC(O)COP(=O)([O-])OCC[N+](C)(C)C` (stereo unspecified) [lysoPC(16:0/0:0)]: the LC retention time turned out to be 4.7 min.

`CCCCCCCCC=CCCCCCCCC(=O)OCC(O)COP(=O)([O-])OCC[N+](C)(C)C` (stereo unspecified) [lysoPC(18:1(9Z)/0:0)]: the LC retention time came to 4.72 min.

Take `OC1C(O)C(O)C(O)C(O)C1O` (stereo unspecified) [myo-inositol]: the LC retention time worked out at 0.465 min. Take `CC(=O)NC(CC(=O)O)C(=O)NC(CCC(=O)O)C(=O)O` (stereo unspecified) [n-acetyl-asp-glu]: the LC retention time was 0.863 min. The figure for `CC(=O)NC(Cc1ccc(O)cc1)C(=O)O` (stereo not drawn) [n-acetyl-l-tyrosine] is 2.68 min; for `CCCCCCCCCCCC(=O)N(C)CC(=O)O` [n-lauroylsarcosine] it is 4.6 min; for `NC(=O)c1cccnc1` [nicotinamide] it is 0.722 min. `O=C([O-])c1cc(=O)[nH]c(=O)[nH]1` [orotic acid]: the LC retention time is 0.588 min.

Consider `Nc1ccc(C(=O)NCC(=O)O)cc1` [p-aminohippuric acid], for which the LC retention time is 1.2 min.

Take `Nc1ccc(C(=O)O)cc1` [paba]: the LC retention time worked out at 2.09 min. With `O=C1CCC(C(=O)N2CCCC2C(=O)O)N1` (stereo unspecified) [pglu-pro], the LC retention time was determined as 2.02 min. For the compound `O=C(O)C(O)Cc1ccccc1` (stereo unspecified) [phenyllactic acid], the LC retention time turned out to be 3.49 min. Turning to `NC(CCCCn1c(C=O)ccc1CO)C(=O)O` (stereo unspecified) [pyrraline], the LC retention time turned out to be 2.31 min.

Take `O=C(O)c1ccc2ccccc2n1` [quinaldic acid]: the LC retention time was determined as 2.86 min. Regarding `CNCC(=O)O` [sarcosine], the LC retention time is 0.468 min. For the compound `OCC1OC(OC2(CO)OC(CO)C(O)C2O)C(O)C(O)C1O` (stereo unspecified) [sucrose], the LC retention time turned out to be 0.504 min. On to `CC(CCC(=O)NCCS(=O)(=O)O)C1CCC2C3CCC4CC(O)CCC4(C)C3CC(O)C12C` (stereo unspecified) [taurodeoxycholic acid], for which the LC retention time stood at 4.46 min. Turning to `Cn1cnc2c1c(=O)[nH]c(=O)n2C` [theobromine], the LC retention time is 2.14 min. In the case of `O=C(O)C1CC(O)CN1` (stereo not drawn) [trans-4-hydroxy-l-proline], the LC retention time is 0.479 min. Consider `NCCc1c[nH]c2ccccc12` [tryptamine hydrochloride], for which the LC retention time is 2.65 min. For the compound `COc1cc(C=O)ccc1O` [vanillin], the LC retention time was 3.45 min.
